US9974761B2, “Medications for deposition on biological surfaces” (The Procter & Gamble Company, priority 2014, dated 2018)

How the values were obtained:
[1] = Sensation reported by panelists; assay type: in vivo; conditions: perceived sensation, in words
human TRPM8 = assay: TRPM8 Protocol-FLIPR Assay (intracellular Ca2+); assay type: cell-based; conditions: for TRPM8 Time Course Activity 50 sec % of WS5 / TRPM8 Time Course Activity 3 min % of WS5 / TRPM8 Time Course Activity 5 min % of WS5 / TRPM8 Time Course Activity 10 min % of WS5: vs 30 uM WS-5; for TRPM8 Time Course Activity 3 min: fluorescence at 3 min; for TRPM8 Time Course Activity 5 min: fluorescence at 5 min; for TRPM8 Time Course Activity 10 min: fluorescence at 10 min
Experimental: To determine whether TRPM8 is activated, the intracellular calcium ion (Ca^2+) level was measured from transfected cells with the TRPM8 receptor sequence (SEQ ID NO: 3). HEK-293 (human embryonic kidney) cells stably transfected with human TRPM8 were grown in 15 ml growth medium (high glucose DMEM (Dulbecco's Modification of Eagle's Medium) supplemented with 10% FBS (fetal bovine serum), 100 ug/ml penicillin/streptomycin, 5 μg/ml blasticindin, and 100 μg/ml zeocin) in a 75 cm^2 flask for 3 days at 37° C. in a mammalian cell culture incubator set at 5% CO2 Cells were detached with addition of 2 ml of trypsin-EDTA buffer (GIBCO® 25200, Invitrogen, Grand Island, N.Y.) for about 2-3 min. Trypsin was inactivated by addition of 8 ml growth medium. Cells were transferred to a 50 ml tube and centrifuged at 850 rpm for 3 minutes to remove medium. After centrifugation, a pellet of cells was formed in the bottom of the tube separating them from the supernatant solution. The supernatant was discarded and the cell pellet was suspended in 1 ml of fresh growth medium to which 5 μl (12.5 μg) of Fluo-4 AM (Molecular Probes, Inc., Eugene, Oreg.) calcium indicator was added and incubated for 30 min with gentle shaking. Fluo-4 AM is a fluorescent dye used for quantifying cellular Ca^2+ concentrations in the 100 nM to 1 microM range. At the end of 30 minutes, 45 ml of assay buffer (1× HBSS (Hank's Balanced Salt Solution), 20 mM HEPES (4-(2-Hydroxyethyl)-1-piperazineethanesulfonic acid)) was added to wash cells and the resulting mixture was then centrifuged at 850 rpm for 3 minutes to remove excess buffer and Fluo-4 AM calcium indicator.
The pelleted cells were re-suspended in 10 ml assay buffer and 90 μl aliquots (˜50,000 cells) per well delivered to a 96-well assay plate containing 10 μl of test compounds (1 mM in assay buffer, […]) or buffer control and incubated at room temperature for 30 minutes. After 30 minutes, a plate was placed into a fluorometric imaging plate reader (FLIPR384 from Molecular Devices, Sunnyvale, Calif.) and basal fluorescence recorded (excitation wave length 488 nm and emission wave length 510 nm). Then 20 μl of […] of TRPM8 agonist WS5 coolant in the assay buffer was added and fluorescence recorded. For determining the direct effect of test compounds on TRPM8, fluorescence was measured immediately after addition of each compound (TABLES 2 and 3). Additional discussion of the FLIPR method can be found in Smart et al., Characterization using FLIPR of human vanilloid VR1 receptor pharmacology, European Journal of Pharmacology 417, 51-58 (2001) and Liu et al., Development and validation of a platelet calcium flux assay using a fluorescent imaging plate reader, Analytical Biochemistry 357, 216-224 (2006).
TRPM8 activation was determined by measuring intracellular calcium ion (Ca^2+) level from transfected cells with the TRPM8 receptor gene, as described in EXAMPLE 1, the results of which are shown in TABLES 4 and 5.

CC(C)[C@@H]1CC[C@@H](C)C[C@H]1C(=O)NCC(NC(=O)[C@@H](C)N)c1ccccc1 (single isomer, unassigned) [Compound 28 fraction 1]
sensation (cooling, warming, burning) [1]: intense cooling
TRPM8 Time Course Activity 50 sec % of WS5 (human TRPM8; dose 6.1 nM): 8.8%
TRPM8 Time Course Activity 3 min % of WS5 (human TRPM8; dose 6.1 nM): 36.5%
TRPM8 Time Course Activity 5 min % of WS5 (human TRPM8; dose 6.1 nM): 46.7%
TRPM8 Time Course Activity 10 min % of WS5 (human TRPM8; dose 6.1 nM): 56.1%
TRPM8 Time Course Activity 3 min (human TRPM8; dose 6.1 nM): 3452.0
TRPM8 Time Course Activity 5 min (human TRPM8; dose 6.1 nM): 4426.0
TRPM8 Time Course Activity 10 min (human TRPM8; dose 6.1 nM): 5375.0
TRPM8 Time Course Activity 50 sec % of WS5 (human TRPM8; dose 12.2 nM): 30.0%
TRPM8 Time Course Activity 3 min % of WS5 (human TRPM8; dose 12.2 nM): 93.0%
TRPM8 Time Course Activity 5 min % of WS5 (human TRPM8; dose 12.2 nM): 103.8%
TRPM8 Time Course Activity 10 min % of WS5 (human TRPM8; dose 12.2 nM): 115.5%
TRPM8 Time Course Activity 3 min (human TRPM8; dose 12.2 nM): 8783.0
TRPM8 Time Course Activity 5 min (human TRPM8; dose 12.2 nM): 9830.0
TRPM8 Time Course Activity 10 min (human TRPM8; dose 12.2 nM): 11065.0
TRPM8 Time Course Activity 50 sec % of WS5 (human TRPM8; dose 24.4 nM): 19.2%
TRPM8 Time Course Activity 3 min % of WS5 (human TRPM8; dose 24.4 nM): 67.8%
TRPM8 Time Course Activity 5 min % of WS5 (human TRPM8; dose 24.4 nM): 80.2%
TRPM8 Time Course Activity 10 min % of WS5 (human TRPM8; dose 24.4 nM): 92.7%
TRPM8 Time Course Activity 3 min (human TRPM8; dose 24.4 nM): 6405.0
TRPM8 Time Course Activity 5 min (human TRPM8; dose 24.4 nM): 7593.0
TRPM8 Time Course Activity 10 min (human TRPM8; dose 24.4 nM): 8879.0
TRPM8 Time Course Activity 50 sec % of WS5 (human TRPM8; dose 48.8 nM): 29.0%
TRPM8 Time Course Activity 3 min % of WS5 (human TRPM8; dose 48.8 nM): 84.8%
TRPM8 Time Course Activity 5 min % of WS5 (human TRPM8; dose 48.8 nM): 94.9%
TRPM8 Time Course Activity 10 min % of WS5 (human TRPM8; dose 48.8 nM): 106.8%
TRPM8 Time Course Activity 3 min (human TRPM8; dose 48.8 nM): 8017.0
TRPM8 Time Course Activity 5 min (human TRPM8; dose 48.8 nM): 8983.0
TRPM8 Time Course Activity 10 min (human TRPM8; dose 48.8 nM): 10224.0
TRPM8 Time Course Activity 50 sec % of WS5 (human TRPM8; dose 97.6 nM): 39.4%
TRPM8 Time Course Activity 3 min % of WS5 (human TRPM8; dose 97.6 nM): 103.1%
TRPM8 Time Course Activity 5 min % of WS5 (human TRPM8; dose 97.6 nM): 113.1%
TRPM8 Time Course Activity 10 min % of WS5 (human TRPM8; dose 97.6 nM): 125.4%
TRPM8 Time Course Activity 3 min (human TRPM8; dose 97.6 nM): 9744.0
TRPM8 Time Course Activity 5 min (human TRPM8; dose 97.6 nM): 10711.0
TRPM8 Time Course Activity 10 min (human TRPM8; dose 97.6 nM): 12011.0
TRPM8 Time Course Activity 50 sec % of WS5 (human TRPM8; dose 195 nM): 53.9%
TRPM8 Time Course Activity 3 min % of WS5 (human TRPM8; dose 195 nM): 116.8%
TRPM8 Time Course Activity 5 min % of WS5 (human TRPM8; dose 195 nM): 124.9%
TRPM8 Time Course Activity 10 min % of WS5 (human TRPM8; dose 195 nM): 136.2%
TRPM8 Time Course Activity 3 min (human TRPM8; dose 195 nM): 11037.0
TRPM8 Time Course Activity 5 min (human TRPM8; dose 195 nM): 11824.0
TRPM8 Time Course Activity 10 min (human TRPM8; dose 195 nM): 13046.0
TRPM8 Time Course Activity 3 min % of WS5 (human TRPM8; dose 390 nM): 120.4%
TRPM8 Time Course Activity 5 min % of WS5 (human TRPM8; dose 390 nM): 126.4%
TRPM8 Time Course Activity 10 min % of WS5 (human TRPM8; dose 390 nM): 137.0%
TRPM8 Time Course Activity 3 min (human TRPM8; dose 390 nM): 11373.0
TRPM8 Time Course Activity 5 min (human TRPM8; dose 390 nM): 11968.0
TRPM8 Time Course Activity 10 min (human TRPM8; dose 390 nM): 13121.0
TRPM8 Time Course Activity 3 min % of WS5 (human TRPM8; dose 781 nM): 128.9%
TRPM8 Time Course Activity 5 min % of WS5 (human TRPM8; dose 781 nM): 133.3%
TRPM8 Time Course Activity 10 min % of WS5 (human TRPM8; dose 781 nM): 142.7%
TRPM8 Time Course Activity 3 min (human TRPM8; dose 781 nM): 12182.0
TRPM8 Time Course Activity 5 min (human TRPM8; dose 781 nM): 12618.0
TRPM8 Time Course Activity 10 min (human TRPM8; dose 781 nM): 13661.0
TRPM8 Time Course Activity 3 min % of WS5 (human TRPM8; dose 1.563 uM): 128.4%
TRPM8 Time Course Activity 5 min % of WS5 (human TRPM8; dose 1.563 uM): 132.0%
TRPM8 Time Course Activity 10 min % of WS5 (human TRPM8; dose 1.563 uM): 140.4%
TRPM8 Time Course Activity 3 min (human TRPM8; dose 1.563 uM): 12135.0
TRPM8 Time Course Activity 5 min (human TRPM8; dose 1.563 uM): 12499.0
TRPM8 Time Course Activity 10 min (human TRPM8; dose 1.563 uM): 13440.0
TRPM8 Time Course Activity 3 min % of WS5 (human TRPM8; dose 3.125 uM): 133.4%
TRPM8 Time Course Activity 5 min % of WS5 (human TRPM8; dose 3.125 uM): 136.7%
TRPM8 Time Course Activity 10 min % of WS5 (human TRPM8; dose 3.125 uM): 144.6%
TRPM8 Time Course Activity 3 min (human TRPM8; dose 3.125 uM): 12602.0
TRPM8 Time Course Activity 5 min (human TRPM8; dose 3.125 uM): 12939.0
TRPM8 Time Course Activity 10 min (human TRPM8; dose 3.125 uM): 13850.0
TRPM8 Time Course Activity 3 min % of WS5 (human TRPM8; dose 6.25 uM): 135.2%
TRPM8 Time Course Activity 5 min % of WS5 (human TRPM8; dose 6.25 uM): 138.3%
TRPM8 Time Course Activity 10 min % of WS5 (human TRPM8; dose 6.25 uM): 147.3%
TRPM8 Time Course Activity 3 min (human TRPM8; dose 6.25 uM): 12775.0
TRPM8 Time Course Activity 5 min (human TRPM8; dose 6.25 uM): 13098.0
TRPM8 Time Course Activity 10 min (human TRPM8; dose 6.25 uM): 14102.0
TRPM8 Time Course Activity 3 min % of WS5 (human TRPM8; dose 12.5 uM): 133.3%
TRPM8 Time Course Activity 5 min % of WS5 (human TRPM8; dose 12.5 uM): 137.3%
TRPM8 Time Course Activity 10 min % of WS5 (human TRPM8; dose 12.5 uM): 145.6%
TRPM8 Time Course Activity 3 min (human TRPM8; dose 12.5 uM): 12591.0
TRPM8 Time Course Activity 5 min (human TRPM8; dose 12.5 uM): 12997.0
TRPM8 Time Course Activity 10 min (human TRPM8; dose 12.5 uM): 13947.0
TRPM8 Time Course Activity 3 min % of WS5 (human TRPM8; dose 25 uM): 137.8%
TRPM8 Time Course Activity 5 min % of WS5 (human TRPM8; dose 25 uM): 141.0%
TRPM8 Time Course Activity 10 min % of WS5 (human TRPM8; dose 25 uM): 149.8%
TRPM8 Time Course Activity 3 min (human TRPM8; dose 25 uM): 13020.0
TRPM8 Time Course Activity 5 min (human TRPM8; dose 25 uM): 13354.0
TRPM8 Time Course Activity 10 min (human TRPM8; dose 25 uM): 14341.0
TRPM8 Time Course Activity 3 min % of WS5 (human TRPM8; dose 50 uM): 130.1%
TRPM8 Time Course Activity 5 min % of WS5 (human TRPM8; dose 50 uM): 133.7%
TRPM8 Time Course Activity 10 min % of WS5 (human TRPM8; dose 50 uM): 137.5%
TRPM8 Time Course Activity 3 min (human TRPM8; dose 50 uM): 12295.0
TRPM8 Time Course Activity 5 min (human TRPM8; dose 50 uM): 12654.0
TRPM8 Time Course Activity 10 min (human TRPM8; dose 50 uM): 13169.0
TRPM8 Time Course Activity 3 min % of WS5 (human TRPM8; dose 100 uM): 132.5%
TRPM8 Time Course Activity 5 min % of WS5 (human TRPM8; dose 100 uM): 135.7%
TRPM8 Time Course Activity 10 min % of WS5 (human TRPM8; dose 100 uM): 137.7%
TRPM8 Time Course Activity 3 min (human TRPM8; dose 100 uM): 12520.0
TRPM8 Time Course Activity 5 min (human TRPM8; dose 100 uM): 12844.0
TRPM8 Time Course Activity 10 min (human TRPM8; dose 100 uM): 13187.0
